{
  "source": "patent US8003331B2",
  "about": "“Method for identifying target protein of drug and method for screening therapeutic agent for diabetes using the target protein” (Astellas Pharma Inc., priority 2005, dated 2011)",
  "key": {"AMPK": {"system": "AMPK", "experiment": "AMPK activation ability detection in HeLa S3 cell (anti-phospho AMPK western blotting)", "assay_type": "cell-based, human", "settings": "phenformin 1 mM, 1 hr", "description": "This expression plasmid pcDNA-LKB1 and the pcDNA-ATP5B prepared in the aforementioned Example 5(1) or an empty vector (pcDNA3.1) (Invitrogen) were transferred into HeLa S3 cell. The HeLa S3 cell (ATCC) was cultured in a 6 well culture plate (35 mm in well diameter) until it reached a state of 70% confluent, by adding 2 ml of a minimum essential medium DMEM (Gibco) containing 10% fetal bovine serum (Sigma) to each well of the culture plate. The medium was substituted by 1 ml per well of a serum-free medium OPTI MEM I (Invitrogen), and 3.0 μg/well of each of the empty vector (pcDNA3.1), pcDNA-LKB1 and pcDNA-ATP5B was transiently transferred using Lipofect amine 2000 (Invitrogen). After 12 hours of the culturing, this was substituted by 2 ml/well of DMEM containing 10% of fetal bovine serum from which low molecular substances had been removed by a charcoal treatment, and further cultured for 36 hours. This was further cultured for 1 hour (1 hr) under a condition of adding phenformin (Sigma) to a final concentration of 1 mM or the solvent (DMSO) alone. The medium was discarded, the cells were washed with a phosphate buffer (to be referred to as PBS hereinafter, and then the cells were lysed by adding 0.15 ml of the aforementioned buffer A (however, the NaCl concentration was 150 mM, and various phosphatase inhibitors; 2 mM Na3VO4, 10 mM NaF, 25 mM β-glycerophosphate, 0.2 mM Na2MoO4, 20 nM okadaic acid, were added). The activity of AMPK in the cells was detected at the level of phosphorylation of molecules by a conventionally known SDS electrophoresis and a western blotting which uses an anti-phosphorylation AMPK antibody (Phospho-AMPK-α(Thr172) Antibody, Daiichi Pure Chemicals). In this case, in order to confirm that there is no difference in the amount of protein of AMPKα (an AMPK subunit which undergoes phosphorylation) among samples, a western blotting which uses an anti-AMPKα antibody (Daiichi Pure Chemicals) was simultaneously carried out. […] However, in the cell in which human ATP5B was expressed by transferring pcDNA-ATP5B, activation of AMPK by phenformin treatment was not found."}, "[1]": {"molecular_target": "T1, Asp 295 Val mutation type ATP5B (Homo sapiens, UniProt P06576, D295V)", "T1 construct": "a complete length cDNA coding for an Asp 295 Val mutation type ATP5B was obtained; made in house", "experiment": "GST-DHFR / MTX-phenformin pull-down, Asp 295 Val mutation type ATP5B", "assay_type": "binding", "settings": "pull-down assay as Example 5(4)"}, "ATP5B": {"molecular_target": "T2, ATP5B (Rattus norvegicus, UniProt P10719)", "T2 construct": "a rat skeletal muscle-derived cell, L 6 cell (ATCC); endogenous in cells; host or cells: L6 (rat skeletal muscle)", "experiment": "GST-HSPA4 pull-down from L 6 cell extract, silver staining and mass spectrum identification", "assay_type": "binding", "settings": "phenformin 50 nM added vs no addition", "source_text": "Using the aforementioned method shown in Example 2(2), attempt was made to screen the target protein of biguanide whose direct target protein has been unclear in spite of its significant drug effect as an agent for treating diabetes. Firstly, a rat skeletal muscle-derived cell, L 6 cell (ATCC), was suspended in a minimum essential medium (αMEM, Invitrogen) containing 10% fetal calf serum (FCS) and cultured on a collagen-coated plate of 15 cm in diameter (Asahi Techno Glass) until reaching the confluent state. The resulting cells were washed twice with 15 ml of ice-cooled phosphate buffer (PBS) and then lysed by adding 2.0 ml of the aforementioned buffer A, and the cell extract was collected using a scraper. […] After 1 hour of shaking at 4° C., the protein binding to the GST-HSPA4 on beads was co-precipitated by centrifugation. In this connection, in order to prevent drop out of the molecular chaperone protein from the beads, the molecular chaperone protein and beads were used by chemically crosslinking them in advance by a conventionally known method. […] As a result, a large protein band of about 60 kDa, in which its amount to bind to the molecular chaperone protein is reduced at the time of adding phenformin in comparison with the case of no addition, was detected. […]"}, "human ATP5B [2]": {"molecular_target": "T3, human ATP5B (Homo sapiens, UniProt P06576)", "T3 construct": "an attempt was made to amplify complete length cDNA of human ATP5B; made in house; host or cells: cell-free: TNT Quick Coupled Transcription/Translation System (Promega) from pcDNA-ATP5B; GST-DHFR from E. coli BL21", "experiment": "GST-DHFR / MTX-phenformin GST pull-down of 35S-labeled ATP5B", "assay_type": "binding", "settings": "10 μM MTX-phenformin fixed to GST-DHFR; wild type ATP5B", "description": "Promega) and 0.74 MBq of a radioisotope (redivue Pro-mix L-[35S]; Amersham) and in accordance with the protocols attached thereto. A 15 μl portion of this human ATP5B protein preparation liquid and 1 μg for each of the GST protein or GST-DHFR, purified on the glutathione Sepharose beads, were mixed and shaken at 4° C. for 1 hour after adding 0.3 ml of buffer A thereto. Thereafter, the protein binding to the GST protein or GST-DHFR on beads was co-precipitated by centrifugation. After repeating this operation 4 times, proteins in the precipitate were separated by SDS polyacrylamide gel electrophoresis in accordance with a conventionally known method, and the protein bound to the probe was detected by an autoradiography."}, "human ATP5B [3]": {"molecular_target": "T3, human ATP5B", "experiment": "competitive inhibition of binding of ATP5B and MTX-phenformin", "settings": "MTX-phenformin 10 μM; free phenformin 10 μM; compounds A and B 'addition of 10'"}, "[4]": {"molecular_target": "T4, Glu 175 Val mutation type ATP5B (Homo sapiens, UniProt P06576, E175V)", "T4 construct": "a complete length cDNA of about 1600 base pairs coding for a Glu 175 Val mutation type ATP5B; made in house", "experiment": "GST-DHFR / MTX-phenformin pull-down, Glu 175 Val mutation type ATP5B", "assay_type": "binding", "settings": "pull-down assay as Example 5(4)", "source_text": "Using the aforementioned expression plasmid pcDNA-ATP5B as the template and using respective sets of primers of the nucleotide sequences represented by SEQ ID NO:87 and SEQ ID NO:81, and SEQ ID NO:80 and SEQ ID NO:88, two DNA fragments of about 530 base pairs of 5′-side and about 1080 base pairs of 3′-side of cDNA having a mutation in which the 175th position of amino acid, Glu, of human ATP5B was replaced by Val were amplified by PCR. All of the PCR reaction, cloning stem and determination of nucleotide sequence were the same as the methods shown in Example 5(1). Using an equivalent mixture of the thus obtained two PCR products as the template, PCR was carried out using the primers represented by SEQ ID NO:80 and SEQ ID NO:81 this time, thereby obtaining a complete length cDNA of about 1600 base pairs coding for a Glu 175 Val mutation type ATP5B. The thus obtained cDNA fragment was cloned into an expression vector (pcDNA3.1/V5-His-TOPO; Invitrogen), and then the nucleotide sequence inserted into the vector was identified using the synthetic primer represented by SEQ ID NO:90 to confirm that the Glu 175 Val mutation was formed in ATP5B. The thus obtained expression plasmid is referred to as pcDNA-ATP5B(E175V) hereinafter. […]"}},
  "note": "“Also recorded” adds a separate entry of the source.",
  "data": [
    {"smiles": "[H]/N=C(/N)N/C(=N/[H])NCCc1ccccc1", "note": "[phenformin]", "values": [
      {"measurement": "phosphorylation level (activation) of AMPK", "setting": "AMPK; HeLa S3 cell without ATP5B over-expression (empty vector- or pcDNA-LKB1-transferred), concentration of compounds A and B not given", "result": "significantly accelerated and activated"},
      {"measurement": "activation of AMPK in cell over-expressing human ATP5B", "setting": "AMPK; pcDNA-ATP5B-transferred HeLa S3 cell, metformin 10 mM", "result": "not found; also recorded: disappearance"},
      {"measurement": "binding with Asp 295 Val mutation type ATP5B", "setting": "[1]", "result": "not able to confirm the binding; also recorded: disappearance"},
      {"measurement": "amount of about 60 kDa protein band (ATP5B) binding to the molecular chaperone protein", "setting": "ATP5B", "result": "reduced"},
      {"measurement": "binding with human ATP5B (band of about 60 kDa, autoradiography)", "setting": "human ATP5B [2]", "result": "directly binds; also recorded: able to confirm binding"},
      {"measurement": "influence on binding of ATP5B and MTX-phenformin", "setting": "human ATP5B [3]", "result": "obstructed"},
      {"measurement": "binding with Glu 175 Val mutation type ATP5B", "setting": "[4]", "result": "not able to confirm the binding; also recorded: disappearance"}
    ]}
  ]
}
